Assay results from PMC10999558, “Analyzing resistome in soil and Human gut: a study on the characterization and risk evaluation of antimicrobial peptide resistance” (Frontiers in Microbiology, 2024).

How the values were obtained:
Format in all cases: cell-based, Escherichia coli
Details in all cases: MHB, 37°C, 24 h, triplicate
E. coli DH5α = test: MIC, broth microdilution, E. coli DH5α carrying pUC118 or resistance-conferring plasmids
Description: (§1) Escherichia coli DH5α, E. coli BL21(DE3), and E. coli JM109 were utilized in this study.
(§2) The MICs were determined using the broth microdilution method in 96-well microtiter plates ([Wiegand et al., 2008]). In brief, a 1:100 dilution of the mid-exponential phase bacterial culture (OD600 = 0.5), consisting of 5 μL (1 × 10^5 CFU/mL), was introduced into polypropylene 96-well plates. These plates contained a two-fold dilution series of AMP in a total volume of 100 μL MHB per well. The incubation of the plates occurred at 37°C in a humidity chamber. The MIC was identified as the lowest concentration that hindered visible bacterial growth after 24 h of incubation. Each experiment was conducted in triplicate.
(§3) Following validation, the colonies displaying resistance underwent additional testing via MIC assessments for the remaining four AMPs that were not employed during the selection process. This experimental procedure was carried out in triplicate.

E. coli JM109 = test: MIC, broth microdilution, retransformed E. coli JM109
Description: as §1, §2
(§4) Before washing down the colonies, we randomly selected two clones from each plate containing distinct AMP. Colony PCRs were conducted using M13 primer pairs to validate the presence of inserts and determine their sizes. The selected colonies were then subjected to sequencing. The specific details are provided in Supplementary Table S2. Following that, plasmids were isolated using the Plasmid Midiprep Kit (Zomanbio, ZP103) following the manufacturer’s guidelines. After the plasmids were successfully reintroduced into E. coli JM109 and E. coli BL 21(DE3), the MICs of the transformed strains against the AMP used for selection were tested. This testing process was carried out in triplicate.
as §3

E. coli BL21(DE3) = test: MIC, broth microdilution, retransformed E. coli BL21(DE3)
Description: as §1, §2, §4, §3

## Iseganan [IB367]
E. coli DH5α; E. coli DH5α containing pUC118 plasmids
  MIC: 16 µg/mL
E. coli DH5α; colony pUC118-DH5α (control, no insert)
  MIC: 16 µg/mL
E. coli DH5α; colony pUC118-FCST1-DH5α (feces insert 1 selected against colistin)
  MIC: 16 µg/mL
E. coli DH5α; colony pUC118-FCST2-DH5α (feces insert 2 selected against colistin)
  MIC: 16 µg/mL
E. coli DH5α; colony pUC118-FGQ1-DH5α (feces insert 1 selected against melittin)
  MIC: 16 µg/mL
E. coli DH5α; colony pUC118-FGQ2-DH5α (feces insert 2 selected against melittin)
  MIC: 32 µg/mL
E. coli DH5α; colony pUC118-FIB1-DH5α (feces insert 1 selected against iseganan)
  MIC: 32 µg/mL
E. coli DH5α; colony pUC118-FIB2-DH5α (feces insert 2 selected against iseganan)
  MIC: 32 µg/mL
E. coli DH5α; colony pUC118-FPB1-DH5α (feces insert 1 selected against polymyxin B)
  MIC: 32 µg/mL
E. coli DH5α; colony pUC118-FPB2-DH5α (feces insert 2 selected against polymyxin B)
  MIC: 16 µg/mL
E. coli DH5α; colony pUC118-FSA1-DH5α (feces insert 1 selected against cathelicidin-DM)
  MIC: 16 µg/mL
E. coli DH5α; colony pUC118-FSA2-DH5α (feces insert 2 selected against cathelicidin-DM)
  MIC: 16 µg/mL
E. coli DH5α; colony pUC118-SCST1-DH5α (soil insert 1 selected against colistin)
  MIC: 16 µg/mL
E. coli DH5α; colony pUC118-SCST2-DH5α (soil insert 2 selected against colistin)
  MIC: 16 µg/mL
E. coli DH5α; colony pUC118-SGQ1-DH5α (soil insert 1 selected against melittin)
  MIC: 16 µg/mL
E. coli DH5α; colony pUC118-SGQ2-DH5α (soil insert 2 selected against melittin)
  MIC: 16 µg/mL
E. coli DH5α; colony pUC118-SIB1-DH5α (soil insert 1 selected against iseganan)
  MIC: 32 µg/mL
E. coli DH5α; colony pUC118-SIB2-DH5α (soil insert 2 selected against iseganan)
  MIC: 32 µg/mL
E. coli DH5α; colony pUC118-SPB1-DH5α (soil insert 1 selected against polymyxin B)
  MIC: 16 µg/mL
E. coli DH5α; colony pUC118-SPB2-DH5α (soil insert 2 selected against polymyxin B)
  MIC: 16 µg/mL
E. coli DH5α; colony pUC118-SSA1-DH5α (soil insert 1 selected against cathelicidin-DM)
  MIC: 32 µg/mL
E. coli DH5α; colony pUC118-SSA2-DH5α (soil insert 2 selected against cathelicidin-DM)
  MIC: 32 µg/mL
E. coli JM109; colony pUC118-FCST1-JM109 (feces insert 1 selected against colistin)
  MIC: 8 µg/mL
E. coli JM109; colony pUC118-FCST2-JM109 (feces insert 2 selected against colistin)
  MIC: 8 µg/mL
E. coli JM109; colony pUC118-FGQ1-JM109 (feces insert 1 selected against melittin)
  MIC: 8 µg/mL
E. coli JM109; colony pUC118-FGQ2-JM109 (feces insert 2 selected against melittin)
  MIC: 16 µg/mL
E. coli JM109; colony pUC118-FIB1-JM109 (feces insert 1 selected against iseganan)
  MIC: 16 µg/mL
E. coli JM109; colony pUC118-FIB2-JM109 (feces insert 2 selected against iseganan)
  MIC: 32 µg/mL
E. coli JM109; colony pUC118-FPB1-JM109 (feces insert 1 selected against polymyxin B)
  MIC: 32 µg/mL
E. coli JM109; colony pUC118-FPB2-JM109 (feces insert 2 selected against polymyxin B)
  MIC: 8 µg/mL
E. coli JM109; colony pUC118-FSA1-JM109 (feces insert 1 selected against cathelicidin-DM)
  MIC: 8 µg/mL
E. coli JM109; colony pUC118-FSA2-JM109 (feces insert 2 selected against cathelicidin-DM)
  MIC: 8 µg/mL
E. coli JM109; colony pUC118-JM109 (control, no insert)
  MIC: 8 µg/mL
E. coli JM109; colony pUC118-SCST1-JM109 (soil insert 1 selected against colistin)
  MIC: 8 µg/mL
E. coli JM109; colony pUC118-SCST2-JM109 (soil insert 2 selected against colistin)
  MIC: 8 µg/mL
E. coli JM109; colony pUC118-SGQ1-JM109 (soil insert 1 selected against melittin)
  MIC: 8 µg/mL
E. coli JM109; colony pUC118-SGQ2-JM109 (soil insert 2 selected against melittin)
  MIC: 8 µg/mL
E. coli JM109; colony pUC118-SIB1-JM109 (soil insert 1 selected against iseganan)
  MIC: 32 µg/mL
E. coli JM109; colony pUC118-SIB2-JM109 (soil insert 2 selected against iseganan)
  MIC: 16 µg/mL
E. coli JM109; colony pUC118-SPB1-JM109 (soil insert 1 selected against polymyxin B)
  MIC: 8 µg/mL
E. coli JM109; colony pUC118-SPB2-JM109 (soil insert 2 selected against polymyxin B)
  MIC: 8 µg/mL
E. coli JM109; colony pUC118-SSA1-JM109 (soil insert 1 selected against cathelicidin-DM)
  MIC: 16 µg/mL
E. coli JM109; colony pUC118-SSA2-JM109 (soil insert 2 selected against cathelicidin-DM)
  MIC: 16 µg/mL
E. coli BL21(DE3); colony pUC118-BL21(DE3) (control, no insert)
  MIC: 16 µg/mL
E. coli BL21(DE3); colony pUC118-FCST1-BL21(DE3) (feces insert 1 selected against colistin)
  MIC: 16 µg/mL
E. coli BL21(DE3); colony pUC118-FCST2-BL21(DE3) (feces insert 2 selected against colistin)
  MIC: 16 µg/mL
E. coli BL21(DE3); colony pUC118-FGQ1-BL21(DE3) (feces insert 1 selected against melittin)
  MIC: 16 µg/mL
E. coli BL21(DE3); colony pUC118-FGQ2- BL21(DE3) (feces insert 2 selected against melittin)
  MIC: 32 µg/mL
E. coli BL21(DE3); colony pUC118-FIB1-BL21(DE3) (feces insert 1 selected against iseganan)
  MIC: 32 µg/mL
E. coli BL21(DE3); colony pUC118-FIB2-BL21(DE3) (feces insert 2 selected against iseganan)
  MIC: 32 µg/mL
E. coli BL21(DE3); colony pUC118-FPB1-BL21(DE3) (feces insert 1 selected against polymyxin B)
  MIC: 32 µg/mL
E. coli BL21(DE3); colony pUC118-FPB2-BL21(DE3) (feces insert 2 selected against polymyxin B)
  MIC: 16 µg/mL
E. coli BL21(DE3); colony pUC118-FSA1-BL21(DE3) (feces insert 1 selected against cathelicidin-DM)
  MIC: 16 µg/mL
E. coli BL21(DE3); colony pUC118-FSA2-BL21(DE3) (feces insert 2 selected against cathelicidin-DM)
  MIC: 16 µg/mL
E. coli BL21(DE3); colony pUC118-SCST1-BL21(DE3) (soil insert 1 selected against colistin)
  MIC: 16 µg/mL
E. coli BL21(DE3); colony pUC118-SCST2-BL21(DE3) (soil insert 2 selected against colistin)
  MIC: 16 µg/mL
E. coli BL21(DE3); colony pUC118-SGQ1-BL21(DE3) (soil insert 1 selected against melittin)
  MIC: 16 µg/mL
E. coli BL21(DE3); colony pUC118-SGQ2-BL21(DE3) (soil insert 2 selected against melittin)
  MIC: 16 µg/mL
E. coli BL21(DE3); colony pUC118-SIB1-BL21(DE3) (soil insert 1 selected against iseganan)
  MIC: 32 µg/mL
E. coli BL21(DE3); colony pUC118-SIB2-BL21(DE3) (soil insert 2 selected against iseganan)
  MIC: 32 µg/mL
E. coli BL21(DE3); colony pUC118-SPB1-BL21(DE3) (soil insert 1 selected against polymyxin B)
  MIC: 16 µg/mL
E. coli BL21(DE3); colony pUC118-SPB2-BL21(DE3) (soil insert 2 selected against polymyxin B)
  MIC: 16 µg/mL
E. coli BL21(DE3); colony pUC118-SSA1-BL21(DE3) (soil insert 1 selected against cathelicidin-DM)
  MIC: 32 µg/mL
E. coli BL21(DE3); colony pUC118-SSA2-BL21(DE3) (soil insert 2 selected against cathelicidin-DM)
  MIC: 16 µg/mL
